# Measurements from paper PMC3265452 (PLoS Neglected Tropical Diseases, 2012).
# Counter-ions that a name gives are not always drawn. Like-named read-outs stand apart in the source and are kept apart here.
# Target: AaDOP2 (Aedes aegypti, UniProt H6D5H2)
# Experiment: AaDOP2 antagonist screen of the LOPAC1280 library (HEK-CRELuc-Aadop2 cells, luminescence)
# Format: cell-based
# [1] = 10 µM compound, 300 nM dopamine, 2 hr, hit = compound effect <20
# Chain of AaDOP2 (H6D5H2 1-476): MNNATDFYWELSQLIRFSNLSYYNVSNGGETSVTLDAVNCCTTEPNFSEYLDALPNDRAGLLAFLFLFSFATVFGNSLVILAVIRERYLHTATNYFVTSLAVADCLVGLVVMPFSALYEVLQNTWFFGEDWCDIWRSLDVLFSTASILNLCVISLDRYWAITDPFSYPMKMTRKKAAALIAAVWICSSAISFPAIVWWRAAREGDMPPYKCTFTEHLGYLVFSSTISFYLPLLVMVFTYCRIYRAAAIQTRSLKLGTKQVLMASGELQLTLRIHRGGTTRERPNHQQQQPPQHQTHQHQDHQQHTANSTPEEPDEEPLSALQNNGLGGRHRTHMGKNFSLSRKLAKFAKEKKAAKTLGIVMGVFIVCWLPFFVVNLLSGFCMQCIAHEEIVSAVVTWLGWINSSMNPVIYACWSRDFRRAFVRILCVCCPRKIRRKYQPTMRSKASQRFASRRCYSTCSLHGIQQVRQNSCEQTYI
Compound,"Compound effect (percent receptor signaling in presence of test compound, relative lux units relative to the SCH23390 control)","Compound effect (percent receptor signaling in presence of test compound, relative lux units relative to the SCH23390 control) [1]"
"Nc1ccc(S(=O)(=O)Nc2ccnn2-c2ccccc2)cc1 [Compound 1078, Sulfaphenazole]",112,–
"CC1=C(CC(=O)O)c2cc(F)ccc2/C1=C\c1ccc(S(C)(=O)=O)cc1 [Compound 1080, Sulindac sulfone]",–,122%
"CN1CCc2cccc(Cl)c2CC1 [Compound 1082, SKF 86466]",37,–
"Cl.NC1CCN(c2cccc(Cl)n2)CC1 [Compound 1083, SR 57227A]",100,–
"Cl.NNC(N)=O [Compound 1086, Semicarbazide hydrochloride]",107,–
"NCCCCNCCCN [Compound 1089, Spermidine trihydrochloride]",104,–
"C=CCN1C[C@H](C)N([C@H](c2ccc(C(=O)N(CC)CC)cc2)c2cccc(OC)c2)C[C@H]1C [Compound 1090, SNC80]",94,–
"Br.Cc1cccc(C2CN(C)CCc3c2cc(O)c(O)c3Cl)c1 (centres unmarked) [Compound 1091, SKF 83959 hydrobromide]",50,–
"NCCCNCCCCNCCCN [Compound 1092, Spermine tetrahydrochloride]",88,–
"Br.CN1CCc2cc(O)c(O)cc2C(c2ccccc2)C1 (centres unmarked) [Compound 1093, SKF 75670 hydrobromide]",–,39%
"CC(=O)NNC(=O)N1Cc2ccccc2Oc2ccc(Cl)cc21 [Compound 1094, SC 19220]",99,–
"Br.Oc1ccc(C2CNCc3sccc32)cc1O (centres unmarked) [Compound 1095, SKF 89626]",89,–
"CCCCN1CCC(COC(=O)c2cc(Cl)c(N)c3c2OCCO3)CC1.Cl [Compound 1097, SB 204070 hydrochloride]",–,122%
"CCCCCCCC/C=C\CCCCCCCC(=O)NCCc1ccc(O)c(O)c1 [Compound 1098, N-Oleoyldopamine]",–,122%
"CC(=O)S[C@@H]1CC2=CC(=O)CC[C@]2(C)[C@H]2CC[C@@]3(C)[C@@H](CC[C@@]34CCC(=O)O4)[C@H]12 [Compound 1099, Spironolactone]",84,–
"Br.CN=c1nc(-c2ccccc2)n(-c2ccccc2)s1 [Compound 1100, SCH-202676 hydrobromide]",–,102%
"N[C@H](CO)C(=O)O [Compound 1101, D-Serine]",100,–
"CC(C)(C)NCC(O)c1ccc(O)c(CO)c1.CC(C)(C)NCC(O)c1ccc(O)c(CO)c1.O=S(=O)(O)O (centres unmarked) [Compound 1102, Albuterol hemisulfate]",–,106%
"C[n+]1cc2c3c(ccc2c2ccc4cc5c(cc4c21)OCO5)OCO3 [Compound 1103, Sanguinarine chloride]",75,–
"O=C(O)CCC(=O)N1CCC[C@H]1C(=O)O [Compound 1104, N-Succinyl-L-proline]",–,111%
"CCCCCCCCCCCCC/C=C/[C@@H](O)[C@@H](N)CO [Compound 1105, Sphingosine]",106,–
"CC1CCN(CC[C@H]2CCCN2S(=O)(=O)c2cccc(O)c2)CC1.Cl [Compound 1106, SB 269970 hydrochloride]",98,–
"O=C(CCCN1CCC2(CC1)C(=O)NCN2c1ccccc1)c1ccc(F)cc1 [Compound 1107, Spiperone hydrochloride]",29,–
"O=C(O)c1ccccc1Nc1cccc(OCc2ccc3ccccc3n2)c1 [Compound 1108, SR 2640]",91,–
"CCN1CCC[C@H]1CNC(=O)c1cc(S(N)(=O)=O)ccc1OC [Compound 1109, (-)-Sulpiride]",87,–
"COc1ccc(CCCOC(Cn2ccnc2)c2ccc(OC)cc2)cc1 (centres unmarked) [Compound 1110, SKF 96365]",68,–
"CC#CCOC(=O)c1c(C)nc2sc3c(c2c1N)CCC(O)C3 (centres unmarked) [Compound 1112, SB 205384]",81,–

Compound,"Compound effect (percent receptor signaling in presence of test compound, relative lux units relative to the SCH23390 control)","Compound effect (percent receptor signaling in presence of test compound, relative lux units relative to the SCH23390 control) [1]"
"CCCCCCCCCCCCCCCCCCNC(=O)OCC(COP(=O)([O-])OCC[n+]1ccsc1)OC (centres unmarked) [Compound 1114, CV-3988]",101,–
"CC1=C(CC(=O)O)c2cc(F)ccc2/C1=C\c1ccc([S+](C)[O-])cc1 (centres unmarked) [Compound 1115, Sulindac]",107,–
"C[N+](C)(C)CCOC(=O)CCC(=O)OCC[N+](C)(C)C [Compound 1116, Succinylcholine chloride]",94,–
"CC(C)(C)NCC(O)c1ccc(O)c(CO)c1 (centres unmarked) [Compound 1117, Salbutamol]",107,–
"OCc1cc(C(O)CNCCCCCCOCCCCc2ccccc2)ccc1O (centres unmarked) [Compound 1118, Salmeterol]",104,–
"C[N+]1(C)[C@@H]2C[C@@H](OC(=O)[C@H](CO)c3ccccc3)C[C@H]1[C@@H]1O[C@@H]12 [Compound 1120, (-)-Scopolamine methyl bromide]",114,–
"CN(C)c1ccc(/C=C2\C(=O)Nc3ccccc32)cc1 [Compound 1121, SU 4312]",51,–
"CCc1ccccc1OC[C@@H](O)CN[C@H]1CCCc2ccccc21.O=C(O)C(=O)O [Compound 1122, SR 59230A oxalate]",75,–
"Cl.O=C(Cc1ccc(Cl)c(Cl)c1)N1CCCCC1CN1CCCC1 (centres unmarked) [Compound 1123, BRL 52537 hydrochloride]",97,–
"Cl.O=C(O)C1CCCN(CCC=C(c2ccccc2)c2ccccc2)C1 (centres unmarked) [Compound 1124, SKF 89976A hydrochloride]",–,95%
"Cc1ccc(O)c(N=Nc2ccccc2)n1 [Compound 1125, SIB 1757]",46,–
"Cc1cccc(/C=C/c2ccccc2)n1 [Compound 1126, SIB 1893]",83,–
"Cl.c1ccc2c(N3CCNCC3)cccc2c1 [Compound 1127, 1-(1-Naphthyl)piperazine hydrochloride]",79,–
"O=C(c1ccc(F)cc1)C1CCN(CCn2c(=O)[nH]c3ccccc3c2=O)CC1 [Compound 1128, Ketanserin tartrate]",53,–
"COc1ccccc1N1CCNCC1.Cl [Compound 1129, 1-(2-Methoxyphenyl)piperazine hydrochloride]",64,–
"Nc1ccc(CCN2CCN(c3cccc(C(F)(F)F)c3)CC2)cc1 [Compound 1130, PAPP]",66,–
"O=C1NCN(c2ccccc2)C12CCN(CC1COc3ccccc3O1)CC2 (centres unmarked) [Compound 1131, Spiroxatrine]",90,–
"Br.COc1ccc(-c2ccc(=N)n(CCCC(=O)O)n2)cc1 [Compound 1132, SR-95531]",101,–
"CN(C)CCCCSC(=N)N.Cl.Cl [Compound 1134, SKF 91488 dihydrochloride]",–,89%
"Cc1ccc(C(=O)Nc2ccc(S(=O)(=O)O)c3cc(S(=O)(=O)O)cc(S(=O)(=O)O)c23)cc1NC(=O)c1cccc(NC(=O)Nc2cccc(C(=O)Nc3cc(C(=O)Nc4ccc(S(=O)(=O)O)c5cc(S(=O)(=O)O)cc(S(=O)(=O)O)c45)ccc3C)c2)c1 [Compound 1135, Suramin hexasodium]",112,–
"Nc1ncnc2c1ncn2C1CCCO1 (centres unmarked) [Compound 1136, SQ 22536]",120,–
"C[C@H](O)C(=O)C1=Nc2c(nc(N)[nH]c2=O)NC1 [Compound 1137, Sepiapterin]",110,–
"COc1cc2c(cc1OC)[C@@H](c1ccccc1)CN(C)CC2.O=C(O)/C=C\C(=O)O [Compound 1138, R(-)-SCH-12679 maleate]",–,36%
"CCN(CC)CCOC(=O)c1cc(Cl)c(N)cc1OC.Cl [Compound 1140, SDZ-205,557 hydrochloride]",–,96%
"Cl.Cn1ccc2cc3c(cc21)CCN3C(=O)Nc1cccnc1 [Compound 1141, SB 206553 hydrochloride]",73,–
"N[C@@H](Cc1c[nH]c2ccccc12)C(=O)O [Compound 1143, L-Tryptophan]",114,–
